Measurements reported in ChEMBL document CHEMBL3045954, “Synthesis and antidepressant activity of di substituted-5-aryl-1,2,4-triazoles” (Med Chem Res, 2012).
Activity calls are given as the source filed them. The rule behind the calls is not given here.

Experiments:
Mus musculus [1] = assay: Antidepressant activity in overnight fasted Mus musculus (mouse) assessed as decrease in immobility time at 100 mg/kg, ip administered 60 min prior to testing measured for 5 min by tail suspension test (reference value: 169.8 +/- 13 secs); type: functional; details: route intraperitoneal
Mus musculus [2] = assay: Antidepressant activity in overnight fasted Mus musculus (mouse) assessed as decrease in immobility time at 30 mg/kg, ip administered 60 min prior to testing measured for 5 min by tail suspension test (reference value: 169.8 +/- 13 secs); type: functional; details: route intraperitoneal
Mus musculus [3] = assay: Antidepressant activity in overnight fasted Mus musculus (mouse) assessed as decrease in immobility time at 10 mg/kg, ip administered 60 min prior to testing measured for 5 min by tail suspension test (reference value: 169.8 +/- 13 secs); type: functional; details: route intraperitoneal
Mus musculus [4] = species on record: Mus musculus; assay: Behavioral effect in Mus musculus (mouse) assessed as effect on alertness after 3 hr; type: functional, organism-based
Mus musculus [5] = assay: Acute toxicity in Mus musculus Swiss albino (mouse) up to 2000 mg/kg, ip measured for 1 month; type: organism-based; parameters: dose 2000 mg/kg, route intraperitoneal; details: in vivo, 730.5 h

Compound	Time (Mus musculus [1]) [s]	Time (Mus musculus [2]) [s]	Time (Mus musculus [3]) [s]	Activity (Mus musculus [4])	Activity (Mus musculus [5])
CN(C)CCSc1n[nH]c(-c2ccc(O)cc2)n1	149	150.3	161.2	inactive	Non-toxic
COc1ccc(-c2nc(SCCN(C)C)n[nH]2)cc1	103.8	111	116.3	inactive	Non-toxic
CN(C)CCSc1n[nH]c(-c2ccc(Cl)cc2Cl)n1	96.2	101.8	109	inactive	Non-toxic
c1ccc(-c2nc(SCCN(C3CCCCC3)C3CCCCC3)n[nH]2)cc1	101.7	109.7	117	inactive	Non-toxic
CN(C)CCSc1n[nH]c(-c2ccccc2O)n1	150	150.8	164.8	inactive	Non-toxic
Clc1ccc(-c2nc(SCCN(C3CCCCC3)C3CCCCC3)n[nH]2)cc1	89.2	94.8	96.8	inactive	Non-toxic
CN(C)CCSc1n[nH]c(-c2ccccc2)n1	102	110.3	117.2	inactive	Non-toxic
Oc1ccc(-c2nc(SCCN(C3CCCCC3)C3CCCCC3)n[nH]2)cc1	112.7	126.2	157.5	inactive	Non-toxic
CCN(CC)CCSc1n[nH]c(-c2ccccc2)n1	108.3	120.7	145.8	inactive	Non-toxic
CCN(CC)CCSc1n[nH]c(-c2ccc(Cl)cc2)n1	103.8	115	129.7	inactive	Non-toxic
Oc1ccccc1-c1nc(SCCN(C2CCCCC2)C2CCCCC2)n[nH]1	150	149.3	162.5	inactive	Non-toxic
CN(C)CCCN1c2ccccc2CCc2ccccc21 [IMIPRAMINE]	–	–	95.8	–	–
CCN(CC)CCSc1n[nH]c(-c2ccc(OC)cc2)n1	103.8	118.5	139	inactive	Non-toxic
Cc1ccc(-c2nc(SCCN(C3CCCCC3)C3CCCCC3)n[nH]2)cc1	150	151.3	165	inactive	Non-toxic
CCN(CC)CCSc1n[nH]c(-c2ccc(C)cc2)n1	151.2	168.2	178.3	inactive	Non-toxic
CCN(CC)CCSc1n[nH]c(-c2ccccc2O)n1	137.3	163.5	173.8	inactive	Non-toxic
Clc1ccc(-c2nc(SCCN(C3CCCCC3)C3CCCCC3)n[nH]2)c(Cl)c1	90.5	94.5	96.5	inactive	Non-toxic
CCN(CC)CCSc1n[nH]c(-c2ccc(Cl)cc2Cl)n1	103.2	110	121.8	inactive	Non-toxic
COc1ccc(-c2nc(SCCN(C3CCCCC3)C3CCCCC3)n[nH]2)cc1	94.8	96.3	101.3	inactive	Non-toxic
Cc1ccc(-c2nc(SCCN(C)C)n[nH]2)cc1	152.8	168.2	172.8	inactive	Non-toxic
CCN(CC)CCSc1n[nH]c(-c2ccc(O)cc2)n1	151.8	167.3	171.8	inactive	Non-toxic
CN(C)CCSc1n[nH]c(-c2ccc(Cl)cc2)n1	96	102.2	109.2	inactive	Non-toxic
